Drawing on patent publication US20070299072A1, “KV1.5 POTASSIUM CHANNEL INHIBITORS” (Wyeth, priority 2006, published 2007), this text covers IC50 and inhibition for 19 compounds.

Assay type in all cases: cell-based
For one series, the target named is T1, Kv1.5 (Homo sapiens, UniProt P22460).
T1 construct: expressed in transfected cells; host or cells: HEK or LTK- cells
Put plainly: Kv1.5 Patch Clamp EP (whole cell patch clamp; single point at 1 μM and IC50). The settings on record: for IC50: concentration response; for inhibition at 1 µM: single point at 1.0 μM, Kv1.5 stably over expressed in HEK or LTK- cells. How it is done: The external solution is standard Tyrodes solution. […] Inhibition was measured at the end of the 1 second pulses and expressed relative to controls. Initial Kv1.5 inhibition is estimated by single point determinations done at 1 μM.

The next series concerns the target T2, HERG (Homo sapiens, UniProt Q12809).
T2 construct: expressed in transfected cells; host or cells: HEK cells
The experiment in a line: HERG Patch Clamp EP (whole cell patch clamp, tail currents; single point at 10 μM and IC50). As to conditions: for IC50: concentration response; for inhibition at 10 µM: human, HEK cells stably overexpressing HERG, single point at 10 μM, HERG in HEK cells, read-out: HERG % Inhib. @ 10 μM. The text has this:
The external solution is standard Tyrodes solution.
For orientation: Patch clamp records ionic current or voltage across a cell membrane.

A further series deals with L-type calcium channels. The experiment in a line: FLIPR L-type Calcium Channel Assay (calcium influx in HL-1 cells after KCl). As to conditions: read-out: L-type Ca2+ IC50. As for the experimental part:
HL-1 cells expressing endogenous L-type calcium channels are removed from culture flasks using trypsin, plated on fibronectin/gelatin-coated, clear-bottomed, black-walled 96-well microplates in Claycomb media (JRH Biosciences #51800) containing 10% fetal bovine serum, 4 mM L-glutamine, and 10 μM norepinephrine, and grown to confluency overnight. The next day, growth medium is aspirated from confluent cell monolayers and replaced with 100 μL per well Tyrode's solution (in mM: 130 NaCl, 4 KCl, 1.8 CaCl2, 1.0 MgCl2, 20 HEPES, 10 glucose, pH 7.35) and 50 μL per well FLIPR Calcium Assay kit, component A (#R-8033, Molecular Devices Corporation) and incubated for 60 min. in a 5% CO2 37° C. incubator. 50 μL per well test compounds are added to the plates and further incubated for 15 min. in a 5% CO2 37° C. incubator. All final solutions contain the anion exchange inhibitor, probenecid (2.5 mM). The 96-well plates are then placed in the center position of the FLIPR 1 (Fluorometric Imaging Plate Reader, Molecular Devices Corporation). Cell monolayers in each well are simultaneously illuminated at 488 nm with an Argon ion laser, and fluorescence emission is monitored using a 510-570 nm bandpass filter and a cooled CCD camera. To depolarize the plasma membrane and activate L-type calcium channels, 50 μL per well of 20 mM KCl (final concentration) are dispensed simultaneously to all 96 wells using the FLIPR's automatic 96-well pipettor. Fluorescence measurements are captured for 5 min. following KCl addition. Calcium influx, expressed as % control, is calculated for each concentration of test compound and concentration-response curves and IC50 values are generated using GraphPad Prism 4.0.

T1 sequence (P22460 whole entry): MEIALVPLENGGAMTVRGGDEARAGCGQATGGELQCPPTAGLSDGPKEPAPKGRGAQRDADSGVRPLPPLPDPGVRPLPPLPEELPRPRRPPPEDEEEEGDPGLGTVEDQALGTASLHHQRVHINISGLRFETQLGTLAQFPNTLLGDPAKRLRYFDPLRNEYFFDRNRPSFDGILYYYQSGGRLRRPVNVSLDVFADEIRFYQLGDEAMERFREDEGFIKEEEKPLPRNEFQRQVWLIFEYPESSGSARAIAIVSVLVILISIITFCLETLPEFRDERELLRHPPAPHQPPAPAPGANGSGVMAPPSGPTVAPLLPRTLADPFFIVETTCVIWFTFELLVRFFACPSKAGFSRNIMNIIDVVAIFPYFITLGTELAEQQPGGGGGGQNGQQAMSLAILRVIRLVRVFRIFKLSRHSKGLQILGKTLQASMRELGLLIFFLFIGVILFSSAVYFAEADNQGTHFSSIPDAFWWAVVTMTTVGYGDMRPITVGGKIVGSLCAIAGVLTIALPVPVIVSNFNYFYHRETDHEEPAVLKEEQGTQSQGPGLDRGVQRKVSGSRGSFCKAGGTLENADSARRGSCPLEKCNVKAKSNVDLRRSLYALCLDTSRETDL
T2 sequence (Q12809 whole entry): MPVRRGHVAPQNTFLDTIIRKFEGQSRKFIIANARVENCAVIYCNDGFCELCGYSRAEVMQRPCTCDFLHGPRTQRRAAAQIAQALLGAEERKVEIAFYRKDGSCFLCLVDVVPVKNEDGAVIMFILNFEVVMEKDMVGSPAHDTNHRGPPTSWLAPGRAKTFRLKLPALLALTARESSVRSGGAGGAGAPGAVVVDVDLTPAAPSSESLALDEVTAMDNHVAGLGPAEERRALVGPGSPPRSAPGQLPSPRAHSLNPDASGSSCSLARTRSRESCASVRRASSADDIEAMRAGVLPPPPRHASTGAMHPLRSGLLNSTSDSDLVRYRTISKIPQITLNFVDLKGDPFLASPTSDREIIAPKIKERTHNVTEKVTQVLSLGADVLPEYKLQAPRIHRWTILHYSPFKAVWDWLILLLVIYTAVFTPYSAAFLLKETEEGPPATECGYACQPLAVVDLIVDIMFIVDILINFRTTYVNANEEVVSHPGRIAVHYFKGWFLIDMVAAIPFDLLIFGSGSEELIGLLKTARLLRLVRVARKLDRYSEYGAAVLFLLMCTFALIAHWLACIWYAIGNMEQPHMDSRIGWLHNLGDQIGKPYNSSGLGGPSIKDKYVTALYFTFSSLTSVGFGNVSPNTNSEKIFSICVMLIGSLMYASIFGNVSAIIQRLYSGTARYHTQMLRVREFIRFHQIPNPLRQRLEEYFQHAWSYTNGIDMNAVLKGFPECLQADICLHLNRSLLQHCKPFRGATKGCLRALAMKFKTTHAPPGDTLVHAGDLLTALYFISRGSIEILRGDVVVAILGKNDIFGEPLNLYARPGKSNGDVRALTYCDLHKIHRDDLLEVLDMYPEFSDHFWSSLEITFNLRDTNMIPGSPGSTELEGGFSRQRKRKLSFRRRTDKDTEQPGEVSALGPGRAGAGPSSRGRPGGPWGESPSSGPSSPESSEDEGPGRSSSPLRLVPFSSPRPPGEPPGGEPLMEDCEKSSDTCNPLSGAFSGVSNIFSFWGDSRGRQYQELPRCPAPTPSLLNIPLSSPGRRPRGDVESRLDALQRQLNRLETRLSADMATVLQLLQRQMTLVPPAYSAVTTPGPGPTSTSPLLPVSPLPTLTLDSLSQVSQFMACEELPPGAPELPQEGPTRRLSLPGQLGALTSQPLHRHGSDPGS

Turning to `CN1C(c2ccc(C3CC3)cc2)N(CCCc2ccccc2)C(=O)C12CCN(C(=O)C1CC1)CC2` (stereo not drawn) [Compound 45, 8-Cyclopropanecarbonyl-2-(4-cyclopropylphenyl)-3-(3-phenylpropyl)-1-methyl-1,3,8-triazaspiro-[4.5]decan-4-one], the concentration for half-maximal inhibition (IC50) came out at 0.287 µM at Kv1.5, 3.3 µM at HERG and 6.2 µM in the series on L-type calcium channels. At Kv1.5, this compound came in with an inhibition at 1 µM of 77%. In addition, the inhibition at 10 µM at HERG came to 87%.

For `COc1ccc(C2N(CCCc3ccccc3)C(=O)C3(CCN(C(=O)C4CC4)CC3)N2C)cc1` (stereo not drawn) [Compound 46, 8-Cyclopropanecarbonyl-2-(4-methoxyphenyl)-3-(3-phenylpropyl)-1-methyl-1,3,8-triazaspiro-[4.5]decan-4-one], at Kv1.5, the inhibition at 1 µM came to 68%. Also, on HERG, the inhibition at 10 µM turned out to be 32%. The half-maximal inhibitory concentration (IC50) in the series with L-type calcium channels was determined as 17 µM.

At Kv1.5, `CN1C(c2ccc(C3CC3)cc2)N(CCCc2ccccc2)C(=O)C12CCN(C(N)=O)CC2` (stereo not drawn) [Compound 49, 2-(4-Cyclopropylphenyl)-1-methyl-4-oxo-3-(3-phenylpropyl)-1,3,8-triazaspiro-[4.5]decane-8-carboxylic acid amide] displayed an IC50 of 0.321 µM and an inhibition at 1 µM of 86%. For the same compound, at HERG, inhibition was half-maximal at 7.7 µM (IC50) and the inhibition at 10 µM is 67%. Moreover, the IC50 with L-type calcium channels turned out to be 14 µM.

At Kv1.5, `CN1C(c2ccc(C(C)(C)C)cc2)N(CCCc2ccccc2)C(=O)C12CCN(C(N)=O)CC2` (stereo not drawn) [Compound 50, 2-(4-tert-Butylphenyl)-1-methyl-4-oxo-3-(3-phenylpropyl)-1,3,8-triazaspiro-[4.5]decane-8-carboxylic acid amide] yielded an inhibition at 1 µM of 72%. Also, the inhibition at 10 µM at HERG worked out at 37%. Also, the IC50 with L-type calcium channels was found to be 16 µM.

`CC(C)NC(=O)N1CCC2(CC1)C(=O)N(CCCc1ccccc1)C(c1ccc(C3CC3)cc1)N2C` (stereo not drawn) [Compound 52, 2-(4-Cyclopropylphenyl)-1-methyl-4-oxo-3-(3-phenylpropyl)-1,3,8-triazaspiro-[4.5]decane-8-carboxylic acid isopropyl amide] registered an inhibition at 1 µM at Kv1.5 of 89%. Moreover, the inhibition at 10 µM at HERG was found to be 79%. Also, the half-maximal inhibitory concentration (IC50) in the series on L-type calcium channels worked out at 12 µM.

At Kv1.5, `CN(C)C(=O)N1CCC2(CC1)C(=O)N(CCCc1ccccc1)C(c1ccc(C3CC3)cc1)N2C` (stereo not drawn) [Compound 53, 2-(4-Cyclopropylphenyl)-1-methyl-4-oxo-3-(3-phenylpropyl)-1,3,8-triazaspiro-[4.5]decane-8-carboxylic acid dimethylamide] showed an inhibition at 1 µM of 93%. The inhibition at 10 µM at HERG was 77%. Also, the IC50 with L-type calcium channels was 4.5 µM.

For the compound `CN1C(c2ccc(C3CC3)cc2)N(CCCc2ccccc2)C(=O)C12CCN(S(C)(=O)=O)CC2` (stereo not drawn) [Compound 54, 2-(4-Cyclopropylphenyl)-8-methanesulfonyl-1-methyl-3-(3-phenylpropyl)-1,3,8-triazaspiro-[4.5]decan-4-one], on Kv1.5, the IC50 worked out at 0.266 µM and the inhibition at 1 µM worked out at 88%. Besides, at HERG, it took 4.9 µM to reach half-maximal inhibition (IC50) and the inhibition at 10 µM came out at 53%. The 50% inhibitory concentration (IC50) with L-type calcium channels worked out at 18 µM.

`COc1ccc(CCN2C(=O)C3(CCN(CC(N)=O)CC3)N(C)C2c2ccc(C3CC3)cc2)cc1` (stereo not drawn) [Compound 55, 2-{2-(4-Cyclopropylphenyl)-3-[2-(4-methoxyphenyl)ethyl]-1-methyl-4-oxo-1,3,8-triaza-spiro[4.5]dec-8-yl}acetamide]: on Kv1.5, the inhibition at 1 µM was 64%. Besides, the inhibition at 10 µM on HERG amounted to 71%. The IC50 with L-type calcium channels was 8 µM.

`COc1ccc(CCN2C(=O)C3(CCN(C(N)=O)CC3)N(C)C2Cc2ccc(C(C)(C)C)cc2)cc1` (stereo not drawn) [Compound 58, 2-(4-tert-Butylbenzyl)-3-[2-(4-methoxyphenyl)ethyl]-1-methyl-4-oxo-1,3,8-triazaspiro[4.5]decane-8-carboxylic acid amide]: on Kv1.5, the IC50 was determined as 0.25 µM and the inhibition at 1 µM was 92%. Besides, at HERG, the concentration for half-maximal inhibition (IC50) worked out at 4.4 µM and the inhibition at 10 µM was 68%. Moreover, in the series with L-type calcium channels, the IC50 was found to be 12 µM.

Consider `COc1ccc(CCN2C(=O)C3(CCN(C(=O)OC(C)(C)C)CC3)NC2c2ccc(OC(F)F)cc2)cc1` (stereo not drawn) [Compound 62, 2-(4-Difluoromethoxyphenyl)-3-[2-(4-methoxyphenyl)ethyl]-4-oxo-1,3,8-triaza-spiro[4.5]decane-8-carboxylic acid tert-butyl ester], for which, on Kv1.5, the IC50 is 0.257 µM and the inhibition at 1 µM was determined as 93%. For the same compound, at HERG, the IC50 is 4.6 µM and the inhibition at 10 µM amounted to 62%. Also, the IC50 in the series with L-type calcium channels came to 7.8 µM.

`COc1ccc(CCN2C(=O)C3(CCN(S(C)(=O)=O)CC3)NC2c2ccc(C(C)(C)C)cc2)cc1` (stereo not drawn) [Compound 63, 2-(4-tert-Butylphenyl)-8-methanesulfonyl-3-[2-(4-methoxyphenyl)ethyl]-1,3,8-triaza-spiro[4.5]decan-4-one] showed an inhibition at 1 µM on Kv1.5 of 73%. For the same compound, the inhibition at 10 µM at HERG was 40%. The IC50 in the series with L-type calcium channels is 3 µM.

With `COc1ccc(CCN2C(=O)C3(CCN(C(=NC#N)Oc4ccccc4)CC3)N(C)C2c2ccc(OC)cc2)cc1` (stereo not drawn) [Compound 67, 8-(phenyl-N-cyano-1-carbimidate)-2-(4-methoxyphenyl)-3-[2-(4-methoxyphenyl)ethyl]-1-methyl-1,3,8-triaza-spiro[4.5]decan-4-one], the inhibition at 1 µM on Kv1.5 was 91%. Also, the inhibition at 10 µM at HERG was determined as 80%. For the same compound, in the series with L-type calcium channels, the IC50 came out at 10 µM.

At Kv1.5, `COC(=O)N1CCC2(CC1)NC(c1ccc(C3CC3)cc1)N(CCc1ccc(OC)cc1)C2=O` (stereo not drawn) [Compound 75, Methyl 2-(4-cyclopropylphenyl)-3-[2-(4-methoxyphenyl)ethyl]-4-oxo-1,3,8-triazaspiro[4.5]decane-8-carboxylate] came in with an inhibition at 1 µM of 94%. In addition, the inhibition at 10 µM at HERG was 2%. Also, in the series on L-type calcium channels, the IC50 was found to be 19 µM.

With `COc1ccc(CCN2C(=O)C3(CCN(C(=O)NN)CC3)N(C)C2c2ccc(C3CC3)cc2)cc1` (stereo not drawn) [Compound 80, 2-(4-cyclopropylphenyl)-3-[2-(4-methoxyphenyl)ethyl]-1-methyl-4-oxo-1,3,8-triazaspiro[4.5]decane-8-carbohydrazide], the inhibition at 1 µM on Kv1.5 came to 74%. For the same compound, the inhibition at 10 µM on HERG came to 24%. Moreover, in the series with L-type calcium channels, the IC50 was determined as 19 µM.

The compound `CCCCC(=O)N1CCC2(CC1)C(=O)N(CCc1ccc(OC)cc1)C(c1ccc(OC(F)F)cc1)N2C` (stereo not drawn) [Compound 81, 2-[4-(difluoromethoxy)phenyl]-3-[2-(4-methoxyphenyl)ethyl]-1-methyl-8-pentanoyl-1,3,8-triazaspiro[4.5]decan-4-one] came in with an inhibition at 1 µM against Kv1.5 of 80%. The inhibition at 10 µM at HERG amounted to 95%. Besides, the IC50 with L-type calcium channels was 9 µM.

The compound `COc1ccc(CCN2C(=O)C3(CCN(C(=O)C4CCCC4)CC3)N(C)C2c2ccc(OC(F)F)cc2)cc1` (stereo not drawn) [Compound 82, 8-(cyclopentylcarbonyl)-2-[4-(difluoromethoxy)phenyl]-3-[2-(4-methoxyphenyl)ethyl]-1-methyl-1,3,8-triazaspiro[4.5]decan-4-one] had an inhibition at 1 µM against Kv1.5 of 88%. The inhibition at 10 µM at HERG is 90%. In the series on L-type calcium channels, the IC50 is 7 µM.

As for `COc1ccc(CCN2C(=O)C3(CCN(C(=O)C4CC4)CC3)N(C)C2c2ccc(CC(C)C)cc2)cc1` (stereo not drawn) [Compound 83, 8-(cyclopropylcarbonyl)-2-(4-isobutylphenyl)-3-[2-(4-methoxyphenyl)ethyl]-1-methyl-1,3,8-triazaspiro[4.5]decan-4-one], the inhibition at 1 µM on Kv1.5 worked out at 93%. Besides, the inhibition at 10 µM on HERG was determined as 84%. For the same compound, the IC50 in the series with L-type calcium channels came to 6.8 µM.

Compound `COc1ccc(CCN2C(=O)C3(CCN(C(=O)OC(C)(C)C)CC3)N(C)C2c2ccc(CC(C)C)cc2)cc1` (stereo not drawn) [Compound 85, tert-butyl 2-(4-isobutylphenyl)-3-[2-(4-methoxyphenyl)ethyl]-1-methyl-4-oxo-1,3,8-triazaspiro[4.5]decane-8-carboxylate] had an inhibition at 1 µM against Kv1.5 of 85%. Further, the inhibition at 10 µM on HERG is 3%. Moreover, the 50% inhibitory concentration (IC50) in the series with L-type calcium channels was found to be 6.7 µM.

Consider `COc1ccc(CCN2C(=O)C3(CCN(CC(=O)N(C)C)CC3)N(C)C2c2ccc(C3CC3)cc2)cc1` (stereo not drawn) [Compound 89, 2-{2-(4-cyclopropylphenyl)-3-[2-(4-methoxyphenyl)ethyl]-1-methyl-4-oxo-1,3,8-triazaspiro[4.5]dec-8-yl}-N,N-dimethylacetamide], for which, on Kv1.5, the half-maximal inhibitory concentration (IC50) was 0.273 µM and the inhibition at 1 µM was 94%. In addition, on HERG, the IC50 was 12 µM and the inhibition at 10 µM came out at 43%. The IC50 with L-type calcium channels came out at 12 µM.

Usually IC50 stands for the midpoint of a concentration-inhibition curve.
